From ChEMBL document CHEMBL1125402, “Conformational effects on the activity of drugs. 13. A revision of previously proposed models for the activation of alpha- and beta-adrenergic receptors” (J Med Chem, 1992) come the findings set out here.

SMILES strings stand for the structures.

Assay [1] concerns the target T1, Adrenergic receptor alpha-2 (Rattus norvegicus, UniProt P22086+P19328+P22909).
T1 sequence (P22086 whole entry): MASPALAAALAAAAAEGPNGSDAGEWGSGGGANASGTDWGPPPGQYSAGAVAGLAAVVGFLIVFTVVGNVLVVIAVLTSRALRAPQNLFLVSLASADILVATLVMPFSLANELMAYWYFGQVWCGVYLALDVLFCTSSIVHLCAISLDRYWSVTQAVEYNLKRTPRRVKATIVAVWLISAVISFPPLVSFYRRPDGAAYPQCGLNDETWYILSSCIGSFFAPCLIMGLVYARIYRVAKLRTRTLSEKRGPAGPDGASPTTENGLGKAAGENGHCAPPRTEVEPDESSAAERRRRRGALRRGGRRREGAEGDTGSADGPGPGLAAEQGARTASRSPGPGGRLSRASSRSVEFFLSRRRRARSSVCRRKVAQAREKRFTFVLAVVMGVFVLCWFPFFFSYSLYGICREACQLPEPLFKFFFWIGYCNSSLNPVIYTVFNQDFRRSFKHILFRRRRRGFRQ
T1 sequence (P19328 whole entry): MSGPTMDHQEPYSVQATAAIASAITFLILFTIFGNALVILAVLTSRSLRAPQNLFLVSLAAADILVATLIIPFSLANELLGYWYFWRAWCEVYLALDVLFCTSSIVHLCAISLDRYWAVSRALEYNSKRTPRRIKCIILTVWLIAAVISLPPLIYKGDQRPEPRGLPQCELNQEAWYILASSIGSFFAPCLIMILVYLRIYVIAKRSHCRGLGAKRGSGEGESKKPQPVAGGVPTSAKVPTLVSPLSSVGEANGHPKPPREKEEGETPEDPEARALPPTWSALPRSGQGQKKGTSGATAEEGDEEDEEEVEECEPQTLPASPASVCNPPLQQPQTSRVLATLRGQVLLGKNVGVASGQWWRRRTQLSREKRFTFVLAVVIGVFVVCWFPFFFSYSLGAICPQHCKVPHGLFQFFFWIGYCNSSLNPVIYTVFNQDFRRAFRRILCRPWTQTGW
T1 sequence (P22909 whole entry): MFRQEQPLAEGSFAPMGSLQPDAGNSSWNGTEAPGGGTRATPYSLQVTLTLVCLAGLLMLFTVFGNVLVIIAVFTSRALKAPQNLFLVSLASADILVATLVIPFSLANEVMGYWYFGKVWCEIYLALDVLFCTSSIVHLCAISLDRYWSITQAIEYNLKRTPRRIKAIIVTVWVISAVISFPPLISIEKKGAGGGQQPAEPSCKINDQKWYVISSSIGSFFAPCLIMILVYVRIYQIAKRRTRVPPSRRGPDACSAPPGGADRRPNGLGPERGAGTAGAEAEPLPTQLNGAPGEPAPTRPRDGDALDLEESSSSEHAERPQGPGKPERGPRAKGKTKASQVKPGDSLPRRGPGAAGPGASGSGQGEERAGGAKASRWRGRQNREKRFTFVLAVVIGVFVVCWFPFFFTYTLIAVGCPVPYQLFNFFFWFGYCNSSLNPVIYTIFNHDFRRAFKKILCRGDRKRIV
Put plainly: Compound was evaluated for alpha adrenergic binding affinity towards Alpha-2 adrenergic receptor of rat brain.

The target of assay [2] is T2, Adrenergic receptor alpha-1 (Rattus norvegicus, UniProt P15823+P23944+P43140).
T2 sequence (P15823 whole entry): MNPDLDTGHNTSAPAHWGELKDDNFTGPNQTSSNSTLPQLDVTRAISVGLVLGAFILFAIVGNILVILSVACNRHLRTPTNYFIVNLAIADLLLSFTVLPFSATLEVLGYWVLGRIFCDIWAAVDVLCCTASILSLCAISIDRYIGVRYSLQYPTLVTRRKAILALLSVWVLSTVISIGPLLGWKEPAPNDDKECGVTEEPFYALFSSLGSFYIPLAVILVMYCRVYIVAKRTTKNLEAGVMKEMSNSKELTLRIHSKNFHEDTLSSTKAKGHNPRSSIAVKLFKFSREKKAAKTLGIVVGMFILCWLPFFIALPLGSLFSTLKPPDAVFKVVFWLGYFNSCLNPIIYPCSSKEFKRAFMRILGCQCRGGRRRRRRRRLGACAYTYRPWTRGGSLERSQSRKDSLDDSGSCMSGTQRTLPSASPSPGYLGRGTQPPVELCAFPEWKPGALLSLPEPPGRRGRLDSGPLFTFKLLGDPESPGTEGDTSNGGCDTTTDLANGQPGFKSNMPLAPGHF
T2 sequence (P23944 whole entry): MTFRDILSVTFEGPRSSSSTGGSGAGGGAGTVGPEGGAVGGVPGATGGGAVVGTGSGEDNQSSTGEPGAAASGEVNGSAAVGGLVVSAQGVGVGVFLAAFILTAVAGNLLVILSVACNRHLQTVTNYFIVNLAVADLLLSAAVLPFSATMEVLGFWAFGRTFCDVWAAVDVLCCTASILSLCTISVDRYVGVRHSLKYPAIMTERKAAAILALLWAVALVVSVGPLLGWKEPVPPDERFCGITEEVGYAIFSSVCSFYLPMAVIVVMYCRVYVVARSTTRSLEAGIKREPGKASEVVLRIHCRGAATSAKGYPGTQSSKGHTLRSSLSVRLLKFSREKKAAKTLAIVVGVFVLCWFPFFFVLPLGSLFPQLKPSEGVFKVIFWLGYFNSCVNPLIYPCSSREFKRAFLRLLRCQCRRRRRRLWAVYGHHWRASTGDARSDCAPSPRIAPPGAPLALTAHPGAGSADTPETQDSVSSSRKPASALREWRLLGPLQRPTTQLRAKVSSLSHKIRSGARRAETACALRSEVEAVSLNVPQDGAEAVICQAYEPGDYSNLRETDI
T2 sequence (P43140 whole entry): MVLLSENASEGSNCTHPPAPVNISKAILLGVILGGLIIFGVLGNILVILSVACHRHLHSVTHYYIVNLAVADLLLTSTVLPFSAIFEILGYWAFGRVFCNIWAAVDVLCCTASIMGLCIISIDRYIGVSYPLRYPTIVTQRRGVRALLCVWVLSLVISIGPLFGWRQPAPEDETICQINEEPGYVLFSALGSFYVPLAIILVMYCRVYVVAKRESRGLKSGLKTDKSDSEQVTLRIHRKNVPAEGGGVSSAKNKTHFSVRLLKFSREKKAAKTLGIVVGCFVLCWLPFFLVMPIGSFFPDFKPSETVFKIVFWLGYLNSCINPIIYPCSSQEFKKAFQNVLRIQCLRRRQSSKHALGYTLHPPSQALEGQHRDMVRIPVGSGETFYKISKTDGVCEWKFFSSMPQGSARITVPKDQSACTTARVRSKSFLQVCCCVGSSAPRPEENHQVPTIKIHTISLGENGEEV
Put plainly: Compound was evaluated for alpha adrenergic binding affinity towards alpha-1 receptor of rat brain.

The target in assay [3] is Beta-1 adrenergic receptor (Cavia porcellus) (UniProt B0FL73).
Description: Intrinsic activity was expressed as the ratio between maximal response elicited by compound and that elicited by full agonist ISO towards Beta-1 adrenergic receptor of isolated guinea pig atria
The target in assay [4] is T2, Adrenergic receptor alpha-1. Put plainly: Binding affinity towards Alpha-1 adrenergic receptor of rat brain.
The target of assay [5] is Beta-2 adrenergic receptor (Cavia porcellus) (UniProt Q8K4Z4).
Description: Compound was evaluated for beta adrenoceptor agonistic activity towards beta 2 receptor of isolated guinea pig tracheal strip
Assay [6] has as its target Beta-1 adrenergic receptor (Rattus norvegicus, UniProt P18090).
Description: Compound was evaluated for beta adrenergic binding affinity towards Beta-1 adrenergic receptor of rat brain
Assay [7] addresses T3, Adrenergic receptor alpha-2 (Homo sapiens) (UniProt P08913+P18825+P18089). The note with it: Cavia porcellus; Ileum.
Description: Intrinsic activity was expressed as the ratio between maximal response elicited by compound and that elicited by full agonist NE towards Alpha-2 adrenergic receptor of isolated guinea pig ileum
Assay [8] addresses T4, Adrenergic receptor alpha-1 (Rattus norvegicus) (UniProt P15823+P23944+P43140). Put plainly: Intrinsic activity was expressed as the ratio between maximal response elicited by compound and that elicited by full agonist NE towards Alpha-1 adrenergic receptor of isolated rat vas deferens; ND=No data. In kind it is functional.
Assay [9] has as its target T5, Beta-2 adrenergic receptor (Bos taurus, UniProt Q28044). Put plainly: Compound was evaluated for beta adrenergic binding affinity towards beta-2 receptor of bovine lung.
Assay [10] addresses T4, Adrenergic receptor alpha-1 (Rattus norvegicus). The settings on record: Vas deferens.
For assay [11] the target is unchanged. Put plainly: Compound was evaluated for alpha adrenoceptor agonistic activity towards Alpha-1 adrenergic receptor of isolated rat vas deferens. The class given is functional, tissue-based.
Assay [12] concerns the target Beta-1 adrenergic receptor (Cavia porcellus) (UniProt B0FL73). Put plainly: Intrinsic activity was expressed as the ratio between maximal response elicited by compound and that elicited by full agonist ISO towards beta 1 receptor of isolated guinea pig atria. The class given is functional.
The target of assay [13] is T5, Beta-2 adrenergic receptor. Put plainly: Compound was evaluated for beta adrenergic binding affinity towards Beta-2 adrenergic receptor of bovine lung.
Assay [14] has as its target T3, Adrenergic receptor alpha-2 (Homo sapiens). Put plainly: Compound was evaluated for alpha adrenoceptor agonistic activity towards alpha-2 adrenergic receptor of isolated guinea pig ileum. The class given is functional, tissue-based. The note with it: Cavia porcellus, target entry is the homologue from another species.
Assay [15] concerns the target T1, Adrenergic receptor alpha-2. Put plainly: Binding affinity towards alpha-2 adrenergic receptor of rat brain.
The target in assay [16] is Beta-1 adrenergic receptor (Cavia porcellus) (UniProt B0FL73). Put plainly: Compound was evaluated for beta adrenoceptor agonistic activity towards Beta-1 adrenergic receptor of isolated guinea pig atria (exp 1). The class given is functional.
The target of assay [17] is Beta-2 adrenergic receptor (Cavia porcellus) (UniProt Q8K4Z4). The source holds these as a separate data set.
Description: Compound was evaluated for beta adrenoceptor agonistic activity towards Beta-2 adrenergic receptor of isolated guinea pig tracheal strip (exp 1)
Assay [18] addresses T3, Adrenergic receptor alpha-2 (Homo sapiens). Put plainly: Intrinsic activity was expressed as the ratio between maximal response elicited by compound and that elicited by full agonist NE towards alpha-2 adrenergic receptor of isolated guinea pig ileum. In kind it is functional, tissue-based. The settings on record: Cavia porcellus.
The nature of assay [19]: Compound was evaluated for Alpha-1 adrenergic receptor agonistic activity towards alpha 1 receptor of isolated rabbit aortic strips. In kind it is functional, Oryctolagus cuniculus.
Assay [20] addresses Beta-1 adrenergic receptor (Cavia porcellus) (UniProt B0FL73). The source holds these as a separate data set.
Description: Compound was evaluated for beta adrenoceptor agonistic activity towards Beta-1 adrenergic receptor of isolated guinea pig atria (exp 2)
Assay [21] concerns the target Beta-2 adrenergic receptor (Cavia porcellus) (UniProt Q8K4Z4). The source holds these as a separate data set.
Description: Compound was evaluated for beta adrenoceptor agonistic activity towards Beta-2 adrenergic receptor of isolated guinea pig tracheal strip (exp 2)

T5 sequence (Q28044 whole entry): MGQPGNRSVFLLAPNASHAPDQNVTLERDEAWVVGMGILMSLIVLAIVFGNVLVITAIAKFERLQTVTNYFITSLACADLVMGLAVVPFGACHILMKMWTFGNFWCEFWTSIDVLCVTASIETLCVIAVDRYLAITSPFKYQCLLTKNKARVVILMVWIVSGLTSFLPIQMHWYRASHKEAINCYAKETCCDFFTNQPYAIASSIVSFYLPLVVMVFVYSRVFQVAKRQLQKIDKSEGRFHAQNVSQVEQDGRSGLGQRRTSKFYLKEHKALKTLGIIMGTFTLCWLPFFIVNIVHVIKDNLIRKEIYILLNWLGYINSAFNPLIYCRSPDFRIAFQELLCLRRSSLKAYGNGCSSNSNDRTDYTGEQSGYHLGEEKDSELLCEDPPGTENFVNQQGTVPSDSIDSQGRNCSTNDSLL
Beta-1 adrenergic receptor (Cavia porcellus), sequence (B0FL73 1-467): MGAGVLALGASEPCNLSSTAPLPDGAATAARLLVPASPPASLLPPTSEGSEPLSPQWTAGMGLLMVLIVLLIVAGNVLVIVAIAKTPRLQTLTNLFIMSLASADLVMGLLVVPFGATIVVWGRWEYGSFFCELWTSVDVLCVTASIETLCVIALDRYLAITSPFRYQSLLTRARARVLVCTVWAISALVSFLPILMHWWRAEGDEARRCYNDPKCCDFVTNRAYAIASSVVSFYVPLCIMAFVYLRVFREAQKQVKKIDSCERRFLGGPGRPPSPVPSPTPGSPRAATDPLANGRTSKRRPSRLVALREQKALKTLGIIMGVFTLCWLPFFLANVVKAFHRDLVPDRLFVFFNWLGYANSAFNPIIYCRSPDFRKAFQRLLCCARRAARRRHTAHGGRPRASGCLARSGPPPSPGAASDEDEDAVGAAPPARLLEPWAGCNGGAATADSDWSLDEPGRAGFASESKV
Beta-2 adrenergic receptor (Cavia porcellus), sequence (Q8K4Z4 whole entry, looked up): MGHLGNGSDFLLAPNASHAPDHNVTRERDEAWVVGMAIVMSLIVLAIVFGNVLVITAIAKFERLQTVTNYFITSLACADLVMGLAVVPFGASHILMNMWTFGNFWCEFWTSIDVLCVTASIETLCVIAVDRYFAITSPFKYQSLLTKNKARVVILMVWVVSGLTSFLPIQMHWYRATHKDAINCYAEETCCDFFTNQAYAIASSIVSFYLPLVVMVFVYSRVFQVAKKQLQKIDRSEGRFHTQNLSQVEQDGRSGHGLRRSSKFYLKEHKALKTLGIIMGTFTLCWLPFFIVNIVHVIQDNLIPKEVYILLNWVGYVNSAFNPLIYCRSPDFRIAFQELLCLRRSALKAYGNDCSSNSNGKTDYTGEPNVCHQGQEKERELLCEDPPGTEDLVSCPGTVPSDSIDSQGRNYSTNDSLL
Beta-1 adrenergic receptor, sequence (P18090 whole entry): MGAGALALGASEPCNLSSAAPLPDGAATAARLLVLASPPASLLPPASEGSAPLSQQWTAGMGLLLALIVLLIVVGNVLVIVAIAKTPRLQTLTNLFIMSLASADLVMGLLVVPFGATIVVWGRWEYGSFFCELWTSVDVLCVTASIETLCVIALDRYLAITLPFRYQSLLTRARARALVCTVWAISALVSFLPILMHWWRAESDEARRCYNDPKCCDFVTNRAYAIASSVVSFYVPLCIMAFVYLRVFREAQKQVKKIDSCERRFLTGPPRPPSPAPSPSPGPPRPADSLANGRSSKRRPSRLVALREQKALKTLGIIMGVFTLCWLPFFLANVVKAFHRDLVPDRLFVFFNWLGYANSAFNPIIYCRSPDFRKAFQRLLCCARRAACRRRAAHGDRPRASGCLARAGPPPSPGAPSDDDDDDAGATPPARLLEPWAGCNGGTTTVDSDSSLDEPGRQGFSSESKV

Consider `CC(C)NCC(O)c1ccc(O)c(O)c1` (stereo not drawn) [ISOPROTERENOL], for which the Ki came out at 21 µM in assay [1] and 35.5 µM in assay [2].

As to `CC(C)NC1CCc2cc(O)c(O)cc2[C@H]1O` (stereo partly drawn), the pD2 was 4.44 in assay [3], 6.17 in assay [5], 5.72 in [7] and less than 3.5 in [8]. Besides, the Ki in assay [4] is 1.2 µM; in assay [6], more than 100 µM; in assay [1], 1.57 µM; in assay [9] it was more than 100 µM.

Consider `NC[C@H](O)c1ccc(O)c(O)c1` [NOREPINEPHRINE], for which the pD2 is 6.32 in assay [3], 5.12 in assay [10], 6.03 in assay [5] and 6.56 in [7]. In addition, the Ki in assay [9] was 6 µM. Also, the Intrinsic activity in assay [11] came to 1.

For `CC(C)N[C@@H]1CCc2c(ccc(O)c2O)[C@H]1O`, the Intrinsic activity stood at 1 in assay [12] and 0.72 in assay [18]. For the same compound, the Ki in assay [13] was 0.062 µM; in assay [15], 5.8 µM; in assay [4], more than 100 µM; in assay [6], 0.76 µM. The pD2 is 5.6 in assay [14]; 6.72 in [16]; 8.06 in assay [17]; less than 3.5 in [19]; 7.56 in assay [20]; 8.41 in assay [21].

A word on the Ki: it is a measure of affinity in units of concentration, obtained from inhibition or displacement. Read a high Ki as a looser hold on the target.
